Structures are written as SMILES. Calls of active or inactive are those of the source. The rule behind the calls is not given here. Numbered stars: 1 amine (or outer) side, 2 acyl side, 3 side chain; on linkers, the order of the positions; unused ones are H or OH. Peptide text beside a SMILES is read from it. CO = O=C([*:1])[*:2]

The values below come from PubChem BioAssay AID1259408 (Genetic Toxicology Data Bank (GENE-TOX), 2018).

The series relates to GENE-TOX genotoxicity assays, various organisms and cells. Description: GENE-TOX mutagenicity studies. The note with it: for call: Assay Type: In vivo carcinogenicity studies.
The mark [1] stands for this setting: Species/Cell Type: Mammalian polychromatic erythrocytes, Assay Type: Micronucleus test, chromosome aberrations, Assay Code: MNTT, Evaluation Type: Evaluation A (Pre-1980).
The mark [2] stands for this setting: Species/Cell Type: Nonhuman, Assay Code: CCGT, Evaluation Type: Evaluation A (Pre-1980).
Setting [3] is: Species/Cell Type: Nonhuman, Assay Type: Sister-chromatid exchange (SCE) in vitro, Assay Code: SC2T, Evaluation Type: Evaluation B (Post-1980).
[4] abbreviates: Species/Cell Type: Salmonella typhimurium (one or more of the five standard strains: TA98, TA100, TA1535, TA1537, and TA1538), Assay Type: Histidine reverse gene mutation, Ames assay, Assay Code: SAL+*, Activation: With metabolic activation, Evaluation Type: Evaluation A (Pre-1980).
The mark [5] stands for this setting: Species/Cell Type: Drosophila melanogaster, Assay Type: Sex-linked recessive lethal gene mutation, Assay Code: SRL+, Evaluation Type: Evaluation A (Pre-1980).
[6] abbreviates: Species/Cell Type: Mammalian polychromatic erythrocytes, Assay Type: Micronucleus test, chromosome aberrations, Assay Code: MNTT, Evaluation Type: Evaluation B (Post-1980).
Where [7] appears, read: Species/Cell Type: Salmonella typhimurium (one or more of the five standard strains: TA98, TA100, TA1535, TA1537, and TA1538), Assay Type: Histidine reverse gene mutation, Ames assay, Assay Code: SALT, Evaluation Type: Evaluation A (Pre-1980).
Setting [8] is: Species/Cell Type: Salmonella typhimurium (one or more of the five standard strains: TA98, TA100, TA1535, TA1537, and TA1538), Assay Type: Histidine reverse gene mutation, Ames assay, Assay Code: SAL+, Evaluation Type: Evaluation A (Pre-1980).
Setting [9] is: Species/Cell Type: Chinese hamster lung (V79) cells, Assay Type: Forward gene mutation at the HPRT or ouabain locus, Assay Code: V79+, Evaluation Type: Evaluation A (Pre-1980).

As for `CC(=O)Nc1cccc2c1-c1ccccc1C2`, the mutagenic call by setting is: (Species/Cell Type: Escherichia coli polA (W3110 vs P3478), Assay Type: Rec-assay, DNA effects (bacterial DNA repair), Assay Code: RE2-, Evaluation Type: Evaluation A (Pre-1980)) “inactive; negative”; (Species/Cell Type: Escherichia coli polA (W3119 vs P3478), Assay Type: Rec-assay, DNA effects (bacterial DNA repair), Assay Code: RE1T, Evaluation Type: Evaluation A (Pre-1980)) “no conclusion”; (Species/Cell Type: Fischer rat embryo (RLV/1706) cells, Assay Type: Cell transformation, viral enhanced, Assay Code: CTR+, Evaluation Type: Evaluation A (Pre-1980)) “active; positive”; under setting [1], “no conclusion”; (Species/Cell Type: Mouse (BALB/c-3T3) cells, Assay Type: Cell transformation, Assay Code: CTB+D, Dose Response: With dose response, Evaluation Type: Evaluation A (Pre-1980)) “active; positive”; (Species/Cell Type: Mouse lymphoma (L5178Y) cells, Assay Type: Forward gene mutation at the thymidine kinase (TK) locus, chromosome aberrations, Assay Code: L51+*, Activation: With metabolic activation, Evaluation Type: Evaluation A (Pre-1980)) “active; positive”. Also, the mutagenic call under setting [3] was “no conclusion”; the mutagenic call (Species/Cell Type: Rat primary hepatocytes, Assay Type: Unscheduled DNA synthesis (UDS) in vitro, DNA effects, Assay Code: UDP-, Evaluation Type: Evaluation A (Pre-1980)) was “inactive; negative”; the mutagenic call (Species/Cell Type: Saccharomyces cerevisiae, Assay Type: Mitotic recombination or gene conversion, Assay Code: YEH-, Evaluation Type: Evaluation A (Pre-1980)) is “inactive; negative”; the mutagenic call under setting [4] was “active; positive”; the mutagenic call (Species/Cell Type: Salmonella typhimurium, Assay Type: Forward and reverse gene mutation, host-mediated assay, Assay Code: HMA-, Evaluation Type: Evaluation A (Pre-1980)) is “inactive; negative”; the mutagenic call (Species/Cell Type: Syrian hamster embryo (SHE) cells, Assay Type: Cell transformation, clonal assay, Assay Code: CTC-, Evaluation Type: Evaluation A (Pre-1980)) was “inactive; negative”. For the same compound, the call under setting [2] is reported as “no conclusion”.

On to `Cc1cccc(C2CO2)c1` (stereo unspecified), for which, under “Species/Cell Type: Escherichia coli WP2 UVRA, Assay Type: Tryptophan reverse gene mutation, Assay Code: WPU+D, Dose Response: With dose response, Evaluation Type: Evaluation A (Pre-1980)”, the mutagenic call was “active; positive”.

With `CC(C)(C#N)Nc1nc(Cl)nc(NC2CC2)n1`, the mutagenic call (Species/Cell Type: Zea mays (corn), Assay Type: Gene mutation, Assay Code: ZEM-, Evaluation Type: Evaluation A (Pre-1980)) is “inactive; negative”.

`O=P1(NCCCl)OCCCN1CCCl` (stereo unspecified): the mutagenic call was “inactive; negative” (Species/Cell Type: Drosophila melanogaster, Assay Type: Aneuploidy, partial sex chromosome loss, chromosome aberrations, Assay Code: DAP-M, Evaluation Type: Evaluation A (Pre-1980)); “inactive; negative” (Species/Cell Type: Drosophila melanogaster, Assay Type: Aneuploidy, whole sex chromosome loss, chromosome aberrations, Assay Code: DAC-M, Evaluation Type: Evaluation A (Pre-1980)); “active; positive” under setting [5]; “active; positive” (Species/Cell Type: Mammalian polychromatic erythrocytes, Assay Type: Micronucleus test, chromosome aberrations, Assay Code: MNT+, Evaluation Type: Evaluation A (Pre-1980)); “active; positive” (Species/Cell Type: Saccharomyces cerevisiae, Assay Type: Forward and reverse gene mutation, mitotic recombination and gene conversion, DNA effects, body fluid assay, Assay Code: BFC+, Evaluation Type: Evaluation A (Pre-1980)); “no conclusion” (Species/Cell Type: Saccharomyces cerevisiae, Assay Type: Forward and reverse gene mutation, mitotic recombination and gene conversion, host-mediated assay, Assay Code: HMET, Evaluation Type: Evaluation A (Pre-1980)). The mutagenic call by setting is: (Species/Cell Type: Saccharomyces cerevisiae, Assay Type: Mitotic recombination or gene conversion, Assay Code: YEC+*, Activation: With metabolic activation, Evaluation Type: Evaluation A (Pre-1980)) “active; positive”; under setting [4], “active; positive”. For the same compound, the call (Species/Cell Type: Nonhuman, Assay Code: CCG+, Evaluation Type: Evaluation A (Pre-1980)) was “active; positive”.

Consider `CC(N)Cc1ccccc1` (stereo unspecified), for which the mutagenic call is, setting by setting: (Species/Cell Type: Drosophila melanogaster, Assay Type: Aneuploidy, sex chromosome gain, chromosome aberrations, Assay Code: DAGT, Evaluation Type: Evaluation A (Pre-1980)) “no conclusion”; (Species/Cell Type: Drosophila melanogaster, Assay Type: Aneuploidy, whole sex chromosome loss, chromosome aberrations, Assay Code: DACT, Evaluation Type: Evaluation A (Pre-1980)) “no conclusion”; (Species/Cell Type: Drosophila melanogaster, Assay Type: Sex-linked recessive lethal gene mutation, Assay Code: SRLT, Evaluation Type: Evaluation A (Pre-1980)) “no conclusion”; (Species/Cell Type: Mammalian polychromatic erythrocytes, Assay Type: Micronucleus test, chromosome aberrations, Assay Code: MNT+, Evaluation Type: Evaluation B (Post-1980)) “active; positive”.

Turning to `Nc1ccc(OCCO)c(N)c1`, under setting [6], the mutagenic call is “no conclusion”.

As to `C=CCOC(N)=O`, under “Species/Cell Type: Nonhuman, Assay Type: Sister-chromatid exchange (SCE) in vivo, Assay Code: SC3+D, Dose Response: With dose response, Evaluation Type: Evaluation B (Post-1980)”, the mutagenic call is “active; positive”.

With `CC(C)[C@H](NC(=O)[C@H](CCCN=C(N)N)NC(=O)N[C@@H](Cc1ccccc1)C(=O)O)C(=O)N[C@H](C=O)CCCN=C(N)N` ({Phe-CO}-Arg-Val-Arg-aldehyde), the mutagenic call was “active; positive” (Species/Cell Type: Human, Assay Type: Sister-chromatid exchange (SCE) in vitro, Assay Code: SC1+, Evaluation Type: Evaluation B (Post-1980)); “inactive; negative” (Species/Cell Type: Mouse (C3H/10T1/2) cells, Assay Type: Cell transformation, Assay Code: CTH-, Evaluation Type: Evaluation A (Pre-1980)); “no conclusion” under setting [3].

For `O=C1CN(/N=C/C=C/c2ccc([N+](=O)[O-])o2)C(=O)N1`, the mutagenic call is “active; positive” (Species/Cell Type: Escherichia coli WP2, Assay Type: Tryptophan reverse gene mutation, Assay Code: WP2+, Evaluation Type: Evaluation A (Pre-1980)) and “inactive; negative” (Species/Cell Type: Escherichia coli WP2 UVRA, Assay Type: Tryptophan reverse gene mutation, Assay Code: WPU-, Evaluation Type: Evaluation A (Pre-1980)).

On to `CN(C)CCNc1ccc(NCCN(C)C)c2c1C(=O)c1c(O)ccc(O)c1C2=O`, for which the mutagenic call (Species/Cell Type: Nonhuman, Assay Type: Sister-chromatid exchange (SCE) in vitro, Assay Code: SC2+, Evaluation Type: Evaluation B (Post-1980)) was “active; positive”.

In the case of `CN1C(=O)CN=C(c2ccccc2)c2cc(Cl)ccc21`, the mutagenic call is, setting by setting: (Species/Cell Type: Human lymphocytes, Assay Type: Sister-chromatid exchange (SCE) in vivo, Assay Code: SCY+, Evaluation Type: Evaluation B (Post-1980)) “active; positive”; (Species/Cell Type: Human, Assay Type: Sister-chromatid exchange (SCE) in vitro, Assay Code: SC1T, Evaluation Type: Evaluation B (Post-1980)) “no conclusion”; under setting [1], “no conclusion”; under setting [7], “no conclusion”; (Species/Cell Type: Salmonella typhimurium, Assay Type: Forward and reverse gene mutation, body fluid assay, Assay Code: BFU+, Evaluation Type: Evaluation A (Pre-1980)) “active; positive”.

Regarding `C[C@H]1CCC[C@@]2(C)CCCC[C@]12O`, the mutagenic call (Species/Cell Type: Salmonella typhimurium (one or more of the five standard strains: TA98, TA100, TA1535, TA1537, and TA1538), Assay Type: Histidine reverse gene mutation, Ames assay, Assay Code: SAL-, Evaluation Type: Evaluation A (Pre-1980)) is “inactive; negative”.

`C=C1C(=O)O[C@@H]2C[C@@H](C)[C@@H]3C[C@H](O)O[C@@H](O)[C@@]3(C)C[C@H]12`: the mutagenic call under setting [8] was “active; positive”.

As for `C1=C[C@H]2O[C@H]2c2c1cc1ccc3cccc4ccc2c1c34`, the mutagenic call is, setting by setting: (Species/Cell Type: Chinese hamster lung (V79) cells, Assay Type: Forward gene mutation at the HPRT or ouabain locus, Assay Code: V79-, Evaluation Type: Evaluation A (Pre-1980)) “inactive; negative”; under setting [8], “active; positive”. Also, the call under setting [2] is given as “no conclusion”.

Regarding `CN1CCN(N=O)CC1`, the mutagenic call is “active; positive” under setting [9]; “active; positive” under setting [5]; “no conclusion” under setting [7]; “active; positive” (Species/Cell Type: Salmonella typhimurium, Assay Type: Forward and reverse gene mutation, host-mediated assay, Assay Code: HMA+, Evaluation Type: Evaluation A (Pre-1980)).

Take `O=C[C@H](NC(=O)N(CCCl)N=O)[C@@H](O)[C@H](O)[C@H](O)CO`: the mutagenic call was “active; positive” under setting [9]; “active; positive” under setting [5]; “active; positive” (Species/Cell Type: Nonhuman, Assay Type: Sister-chromatid exchange (SCE) in vitro, Assay Code: SC2+D, Dose Response: With dose response, Evaluation Type: Evaluation B (Post-1980)); “active; positive” (Species/Cell Type: Saccharomyces cerevisiae, Assay Type: Mitotic recombination or gene conversion, Assay Code: YEC+, Evaluation Type: Evaluation A (Pre-1980)). Under “Species/Cell Type: Nonhuman, Assay Code: CCG+L, Evaluation Type: Evaluation A (Pre-1980)”, the call was “active; positive”.

For `Cc1ccccc1C`, the mutagenic call under setting [6] is on record as “no conclusion”.
